# From patent US20090176839A1, “FORMULATIONS OF 3-(6-(1-(2,2-DIFLUOROBENZO[D][1,3]DIOXOL-5-YL) CYCLOPROPANECARBOXAMIDO)-3-METHYLPYRIDIN-2-YL)BENZOIC ACID” (priority 2007, published 2009)
# Like-named read-outs stand apart in the source and are kept apart here.
# What was measured:
# [1] = Acute oral toxicity study in mice; details: mouse, in vivo, po
# Procedure: (§1) The intended clinical route of administration is oral, thus oral toxicity studies were done in mice, rats and dogs. […] Effects of repeat oral dosing were assessed in rats and dogs in preliminary 7-day toxicity studies followed by a 14-day GLP1 toxicity studies.
# mice = assay: Acute oral toxicity study in mice; details: mice; single oral doses 500, 1000 or 2000 mg/kg
# Procedure: as §1
# [2] = Toxicokinetics in acute oral toxicity study in rats; format: in vivo
# Source text: Compound 1 was also well absorbed in rats with time to reach maximum plasma concentrations(tmax) ranging from 4.0 to 24.0 hr.
# in vivo [3] = assay: in vivo; design: species or system rats; details: rat
# Procedure: (§2) The animals were dosed orally with the vehicle (0.5% methylcellulose in water), or 15, 75, or 150 mg/kg Compound 1 twice daily for 7 consecutive days. The two daily doses were administered approximately 10 hours apart and the dose volume was 5 mL/kg/b.i.d. for all dose groups. At the end of the dosing period, all animals were euthanized and necropsied. Satellite animals (6/sex/Groups 2-4) were dosed in the same manner as the toxicity animals and plasma samples were collected on Days 1 and 7 for toxicokinetic (TK) analysis. Parameters evaluated during the study were: viability, clinical observations, body weights, feed consumption, clinical pathology (termination), organ weights, macroscopic observations and microscopic pathology.
# rats = assay: in vivo; details: rat
# Procedure: as §2
# [4] = Toxicokinetics in 7-day dose range finding study in rats; format: in vivo; details: 300 mg/kg/day; for Cmax: rat, plasma, oral
# Procedure: as §2
# The plasma AUC0-24 data on Day 1 was consistent with previously conducted single dose studies of Compound 1 in the rat.
# [5] = Oral pharmacokinetics of Compound 1 in fed or fasted male dogs at 10 mg/kg; format: in vivo, male beagle dogs; details: for concentration at 48 hr: oral, read-out: Clast
# Procedure: Non-validated research grade assays were used for these analyses. All pharmacokinetic studies were conducted using fed animals unless otherwise specified.
# The oral pharmacokinetics of Compound 1 were determined under fed and fasted conditions in male beagle dogs following a single 10 mg/kg administration (Table 6). […] The tmax occurred sooner after administration in the fasted state (1.5 hours) than in the fed state (2.7 hours). The variability of the systemic exposure of Compound 1 was higher under fed conditions (CV of 67% for AUC0-INF) than under fasted conditions (CV of 27% for AUC0-INF), possibly due to changes in stomach emptying time under fed conditions.
# [6] = Stability of 6 mg/mL aqueous methylcellulose-polysorbate 80 suspension (HPLC, XRPD, NMR); format: physicochemical; details: for Peak purity %: 6 mg/mL aqueous methylcellulose-polysorbate 80 suspension, room temperature
# Procedure: Methylcellulose (0.5 g) was combined with 99.0 g of purified water in a beaker and stirred in a 60-70° C. water bath for 30′-1 hr. The solution was stirred in a 0° C. ice/water bath for another 30′ or until clear. Polysorbate 80 (0.5 g) was added and stirring at room temperature followed for 30′-1 hr or until a clear solution was obtained.
# The desired amount of 0.5% methylcellulose and 0.5% polysorbate 80 stock solution for making a 6 mg/mL based on free base (6.48 mg/mL based on HCl salt) was transferred into the vial and sonicated for 20 minutes with alternate stirring for 1-2 minutes. The solution was homogenized for approximately 1-2 minutes.
# As with 0.5% methylcellulose formulation prepared previously, the HCl salt was quickly converted to Compound 1 in Form I at T(0) resulting in a crystalline free form suspension as shown by XRPD (FIG. 10) and confirmed by ^1H NMR analysis (FIGS. 11-13). Additionally, the solid form in suspension at T(0) was recovered an subjected to HPLC analysis: […]
# in vivo [7] = details: dog, po
# Procedure: Repeat-dose oral toxicity studies of 7- and 14-days duration have been conducted in rats (up to 600 mg/kg/day) and dogs (up to 200 mg/kg/day).
# [8] = male, beagle, dog, plasma, po, 10 mg/kg, male dogs, Fasted
# [9] = male, beagle, dog, plasma, po, 10 mg/kg, male dogs, Fed
smiles,measurement,setting,value
"Cc1ccc(NC(=O)C2(c3ccc4c(c3)OC(F)(F)O4)CC2)nc1-c1cccc(C(=O)O)c1 [Compound 1, 3-(6-(1-(2,2-difluorobenzo[d][1,3]dioxol-5-yl)cyclopropanecarboxamido)-3-methylpyridin-2-yl)benzoic acid]",MTD at 14 days,[1],> 2000 mg/kg
same,NOAEL at 14 days,[1],> 2000 mg/kg
same,organ weights and gross observations at necropsy,mice,no effects on organ weights and no gross observations
same,"AUC0-24hr values, females vs. males",[2]; 500 mg/kg dose group,more than 2 fold
same,Cmax,"[2]; Sprague Dawley, rat, plasma, po, 2000 mg/kg, Male",306 µg/mL
same,AUC(0-t),"[2]; Sprague Dawley, rat, plasma, po, 2000 mg/kg, Male, read-out: AUC0-24 h",6110 µg·h/mL
same,Tmax,"[2]; Sprague Dawley, rat, plasma, po, 2000 mg/kg, Male, read-out: tmax",24 h
same,Tmax,"[2]; both sexes, rat, plasma, po, 500 to 2000 mg/kg, read-out: time to reach maximum plasma concentrations (tmax)",4 to 24 h
same,half-life,"[2]; both sexes, rat, plasma, po, could not be calculated at 1000 and 2000 mg/kg, read-out: elimination half-life (t1/2)",9.4 to 10.8 h
same,Cmax,"[2]; male, rat, plasma, po, males at 500 mg/kg",135 µg/mL
same,AUC(0-t),"[2]; male, rat, plasma, po, males at 500 mg/kg, read-out: AUC0-24hr",1390 µg·h/mL
same,Cmax,"[2]; male, rat, plasma, po, males at 2000 mg/kg",306 µg/mL
same,Cmax,"[2]; rat, plasma, po, 2000 mg/kg, Female",305 µg/mL
same,AUC(0-t),"[2]; rat, plasma, po, 2000 mg/kg, Female, read-out: AUC0-24 h",6750 µg·h/mL
same,Tmax,"[2]; rat, plasma, po, 2000 mg/kg, Female, read-out: tmax",10 h
same,NOAEL at 7 days,in vivo [3],300 mg/kg/day
same,gross lesions and histopathological findings,rats,no test article related gross lesions or histopathological findings
same,adrenal gland weights,rats; 300 mg/kg/day,higher adrenal gland weights
same,body weight,rats; 300 mg/kg/day,minor effects on body weight
same,serum potassium,rats; 300 mg/kg/day,lower serum potassium
same,urinary pH,rats; 300 mg/kg/day,slight increase in urinary pH
same,average plasma concentrations,[4]; females,~190 µM
same,Cmax,"[4]; female, females",~280 µM
same,Cmax,"[4]; male, males",~430 µM
same,clearance,[5]; dog,very low clearance
same,F,"[5]; male dogs, 10 mg/kg, Fasted",53%
same,tlast,"[5]; male dogs, 10 mg/kg, Fasted",48 h
same,F,"[5]; male dogs, 10 mg/kg, Fed",53%
same,tlast,"[5]; male dogs, 10 mg/kg, Fed",48 h
same,concentration at 48 hr,"[5]; male, beagle, dog, plasma, 10 mg/kg, male dogs, 10 mg/kg, Fasted",0.066 µg/mL
same,concentration at 48 hr,"[5]; male, beagle, dog, plasma, 10 mg/kg, male dogs, 10 mg/kg, Fed",0.047 µg/mL
same,half-life,"[5]; male, beagle, dog, plasma, po, 10 mg/kg, male dogs, 10 mg/kg, Fasted, read-out: t1/2 (converted)",6.3 h
same,half-life,"[5]; male, beagle, dog, plasma, po, 10 mg/kg, male dogs, 10 mg/kg, Fed, read-out: t1/2 (converted)",6.6 h
same,AUC(0-inf),[5]; [8],35.8 µg·h/mL
same,Cmax,[5]; [8],7.9 µg/mL
same,Tmax,[5]; [8],1.5 h
same,AUC(0-inf),[5]; [9],35.7 µg·h/mL
same,Cmax,[5]; [9],4.1 µg/mL
same,Tmax,[5]; [9],2.7 h
same,half-life,"[5]; male, beagle, dog, plasma, po, administered orally to dogs, read-out: half-life",5 to 9 h
same,bioavailability,"[5]; male, beagle, plasma, po, dog, 10 mg/kg orally in a methylcellulose suspension",53%
same,degradation peaks by HPLC,[6],No major degradation peaks were detected
same,Peak purity %,[6]; T(0),98.81%
same,Peak purity %,[6]; T(24 h),98.24%
same,"chemically stable, time","[6]; 24 h, 6 mg/mL",at least 24 hrs
same,NOAEL at 14 days,in vivo [7],200 mg/kg/day
